Source: paper PMC7876056, “Population Pharmacokinetic Analysis of Yimitasvir in Chinese Healthy Volunteers and Patients With Chronic Hepatitis C Virus Infection” (Frontiers in Pharmacology, 2021)
Values joined by “and” are separate entries in the source; they are usually repeats but may differ in a detail not shown here. Equal values may be shown once. “Also recorded” adds a separate entry of the source. Read-outs that look alike come from different tables or passages of the source.

Columns and labels:
[1] = system: CYP3A4; conditions: cited from earlier work
[2] = Population pharmacokinetic model (Phoenix NLME, FOCE-ELS) of yimitasvir in Chinese healthy volunteers and HCV infection patients; format: in vivo, human
Experimental: (§1) The current population PK analysis of yimitasvir was performed using rich and sparse PK samples collected from six clinical pharmacology trials [4 phase 1 ([Zhao et al., 2019]), 1 phase 1b ([Zhang et al., 2018]) and 1 phase 2 studies] in Chinese healthy volunteers and HCV-infected patients. Rich sampling entailed serial blood sampling at defined time points, and sparse sampling (single sample) only in phase 2 study entailed blood collection at every study visits. Patients with genotype 1 HCV infection were eligible, while patients with prior use of direct-acting antiviral agents (DAA) for HCV infection treatment were excluded in phase 1b and phase 2 studies.
A fully validated liquid chromatography-tandem mass spectrometry (LC-MS/MS) method determining yimitasvir concentration in phase 1 and phase 1b studies had been reported elsewhere ([Zhang et al., 2018]; [Zhao et al., 2019]).
Plasma concentration of yimitasvir in phase 2 study was analyzed using a validated LC-MS/MS method equipped with a Shimadzu LC-30AD liquid chromatography-SCIEX API6500 mass spectrometer. Chromatographic retention and separation were achieved on a XBridge Peptide BEH C18, 50 × 2.1 mm, 3.5 μm column. Gradient elution was used with 2 mM ammonium acetate in water with 0.1% formic acid as mobile phase A and acetonitrile:methanol (30:70, v:v) as mobile phase B at a flow rate of 0.5 ml min^−1. The column temperature was maintained at 45°C. Quantitation was accomplished in positive mode with precursor-to-production pairs of m/z 428.5→315.3 for yimitasvir and m/z 432.5→319.5 for the internal standard d8-DAG (isotope-labelled yimitasvir), respectively.
Population pharmacokinetic analysis of yimitasvir was performed by Phoenix NLME software (Version 8.1, Certara) using the first-order conditional estimation-extended least squares (FOCE-ELS) method.
The structural model was first tested by fitting a one-compartment or two-compartment model to the log-transformed PK data. Different absorption models including first-order absorption with or without a lag time, sequential zero-first order absorption, transit absorption and saturable Michaelis-Menten absorption model, were also tested. The optimal structural model was selected based on the Akaike Information Criteria (AIC), minimization success, visual inspection of goodness-of-fit plots and individual fit.
Inter-subject variability was estimated by exponential model for PK parameters as follows (Eq. 1): θi=θTV×e^ηi, (1) where θi is the parameter estimation for the ith individual, θTV is the typical value of the parameter estimation in the population, ηi is a random variable which assumed to be normally distributed with a mean of 0 and a variance of ω^2. Proportional error model and proportional plus additive error model were tested as residual error models.
Sigmoidal maximum effect (Emax) (Eq. 2) and linear models (Eq. 3) were tested to quantify the relationship between bioavailability and dose: {F=θF ,Dose≤100 mgF=θF−Fmax×(Dose−100)/(F50+(Dose−100)),Dose>100 mg, (2) where θF is the bioavailability in individuals who received ≤100 mg yimitasvir, which was fixed to 1. Fmax is the maximal reduction in bioavailability and F50 is the dose associated with a half-maximal reduction in bioavailability. {F=θF ,Dose≤100 mgF=θF −Alpha×(Dose−100)/100,Dose>100 mg, (3) where Alpha is a slope term determining the relative change in bioavailability for each 100 mg increase in yimitasvir dose.
Subsequently, different covariates were tested using a stepwise forward inclusion [a decrease in objective function value (OFV) of > 6.63, p < 0.01] and a stricter backward exclusion procedure (an increase in OFV of > 10.83, p < 0.001). […]

[3] = dogs; cited from earlier work
[4] = mice; cited from earlier work
[5] = rats; cited from earlier work
[6] = system: chronic HCV genotype 1 infection; experiment: Phase 2 study of yimitasvir with sofosbuvir in patients with chronic HCV infection; format: in vivo, human; conditions: for Adverse reaction rate: with 400 mg sofosbuvir
Experimental: In phase 2 study, yimitasvir 100 or 200 mg was administered once daily for 12 weeks in combination with 400 mg sofosbuvir in patients with chronic HCV infection. […] The primary endpoint of phase 2 study was sustained virologic response [HCV RNA less than lower limit of quantification (LLOQ)] 12 (SVR12) weeks after the completion of treatment. SVR12 rates were achieved 100% in both 100 mg yimitasvir/400 mg sofobuvir and 200 mg yimitasvir/400 mg sofobuvir groups. […] The most common adverse reactions were neutropenia (3.9%), leukopenia (3.1%), hypercholesterolemia (3.1%) and fatigue (3.1%).
as §1

[7] = system: CYP 1A2; conditions: cited from earlier work
[8] = system: CYP 2C19; conditions: cited from earlier work
[9] = final model estimate (RSE%), food = 2, high-fat meal
[10] = 100 or 200 mg with 400 mg sofosbuvir

Relative bioavailability of 200 mg to 100 mg ([2]; according to the final model): 87.1%
Relative bioavailability of 400 mg to 100 mg ([2]; according to the final model): 61.3%
CL/F ∼ Female (covariate coefficient) ([2]; bootstrap mean): −0.250 (−14.6)
F ∼ Food1 (covariate coefficient) ([2]; bootstrap mean): −0.312 (−34.9)
F ∼ Food2 (covariate coefficient) ([2]; bootstrap mean): −0.473 (−19.8)
Ka ∼ Food1 (covariate coefficient) ([2]; bootstrap mean): −1.72 (−10.5)
Ka ∼ Food2 (covariate coefficient) ([2]; bootstrap mean): −2.43 (−7.4)
Random effect CL/F (inter-individual variability) ([2]; bootstrap mean): 0.483 (5.8)
Random effect CL/F ∼ V1/F (covariance) ([2]; bootstrap mean): 0.562 (8.1)
Random effect V1/F (inter-individual variability) ([2]; bootstrap mean): 0.729 (11.0)
Residual error σ (proportional) ([2]; bootstrap mean): 0.304 (3.4)
Td ∼ Patient (covariate coefficient) ([2]; bootstrap mean): −0.403 (−27.9)
CL/F ([2]; bootstrap mean (n = 1,000)): 13.8 (3.7) l h^−1
Ka ([2]; bootstrap mean (n = 1,000)): 1.38 (13.7) h^−1
Q/F ([2]; bootstrap mean (n = 1,000)): 4.04 (16.8) l h^−1
Td ([2]; bootstrap mean (n = 1,000)): 2.22 (7.2) h
V1/F ([2]; bootstrap mean (n = 1,000)): 189 (5.6) l
V2/F ([2]; bootstrap mean (n = 1,000)): 59.1 (9.1) l
Effect of age and BW on PK properties ([2]; covariate screening): no effect
Decrease of bioavailability (F) for each 100 mg dose increase ([2]; dose > 100 mg, linear model): 12.9%
Covariance of inter-individual variability of CL/F and V1/F ([2]; final model): 56.5%
Inter-individual variability for CL/F ([2]; final model): 48.5%
Inter-individual variability for V1/F ([2]; final model): 73.6%
CL/F ∼ Female (covariate coefficient) ([2]; final model estimate (RSE%)): −0.251 (−14.2)
Q/F ([2]; final model estimate (RSE%)): 3.96 (14.7) l h^−1
Random effect CL/F (inter-individual variability) ([2]; final model estimate (RSE%)): 0.485 (3.8)
Random effect CL/F ∼ V1/F (covariance) ([2]; final model estimate (RSE%)): 0.565 (5.1)
Random effect V1/F (inter-individual variability) ([2]; final model estimate (RSE%)): 0.736 (6.9)
Residual error σ (proportional) ([2]; final model estimate (RSE%)): 0.305 (0.7)
Td ∼ Patient (covariate coefficient) ([2]; final model estimate (RSE%)): −0.416 (−10.7)
V2/F ([2]; final model estimate (RSE%)): 58.6 (6.9) l
Ka ∼ Food1 (covariate coefficient) ([2]; final model estimate (RSE%), food = 1, evening, fasted at least 4 h after dinner): −1.71 (−5.5)
F ∼ Food1 (covariate coefficient) ([2]; final model estimate (RSE%), food = 1, fasted at least 4 h): −0.341 (−26.3)
F ∼ Food2 (covariate coefficient) [2, 9]: −0.485 (−31.2)
Ka ∼ Food2 (covariate coefficient) [2, 9]: −2.40 (−3.7)
Td (duration of zero-order absorption) ([2]; final model estimate (RSE%), healthy volunteers): 2.17 h and 2.17 (4.4) h
Higher CL/F in male subjects than females ([2]; human, in vivo): 22.2%
Zero-order absorption duration (Td) ([2]; patients): 1.43 h
Decrease of F by high-fat meal ([2]; vs fasted): 38.5%
Decrease of Ka by high-fat meal ([2]; vs fasted): 90.9%
Dose proportionality of exposure ([6]; patients, 100 or 200 mg with 400 mg sofosbuvir): Less than dose proportionality
Compound: COC(=O)NC(C(=O)N1CCCC1c1ncc(-c2ccc(-c3ccc(-c4ccc5nc(C6CCCN6C(=O)C(NC(=O)OC)C(C)C)[nH]c5c4)c4c3C3CCC4C3)cc2)[nH]1)C(C)C (stereo not drawn) [yimitasvir]
Induction of CYP3A4 [1]: may be a weak inducer
CL/F ∼ ALT (covariate coefficient, power) ([2]; bootstrap mean): −0.0955 (−15.3)
CL/F ∼ ALT (covariate coefficient, power) ([2]; final model estimate (RSE%), baseline ALT normalised to median): −0.0950 (−21.2)
Ka ([2]; final model estimate (RSE%), first-order absorption rate, typical healthy male volunteer, ALT 31.6 IU l^−1, fasted): 1.31 (7.2) h^−1
CL/F (apparent oral clearance) ([2]; final model estimate (RSE%), typical healthy male volunteer, ALT 31.6 IU l^−1, fasted): 13.8 l h^−1 and 13.8 (4.1) l h^−1
Vd/F ([2]; human, plasma, oral, final model estimate (RSE%), typical healthy male volunteer, ALT 31.6 IU l^−1, fasted, read-out: V1/F (central volume of distribution)): 188 L
Metabolism in hepatic microsomes [3]: No metabolism
Metabolism in hepatic microsomes [4]: No metabolism
Metabolism in hepatic microsomes [5]: No metabolism
Adverse reaction rate ([6]; 100 mg group): 35.9%
SVR12 rate ([6]; 100 mg yimitasvir/400 mg sofosbuvir once daily for 12 weeks): 100%
Adverse reaction rate ([6]; 200 mg group): 36.9%
SVR12 rate ([6]; 200 mg yimitasvir/400 mg sofosbuvir once daily for 12 weeks): 100%
Effect of co-medication of sofosbuvir on PK profile ([6]; 400 mg sofosbuvir): did not affect; also recorded: not affected by co-medication of sofosbuvir
Adverse reaction: fatigue [6, 10]: 3.1%
Adverse reaction: hypercholesterolemia [6, 10]: 3.1%
Adverse reaction: leukopenia [6, 10]: 3.1%
Adverse reaction: neutropenia [6, 10]: 3.9%
Severity of adverse reactions ([6]; most common adverse reactions): grade 1 or 2; also recorded: grade one or two
SVR12 rate (primary endpoint) ([6]; phase 2 study overall, taken at least 2 h before or after a meal in most patients): 100%
Inhibition of CYP1A2 [7]: does not inhibit
Inhibition of CYP2C19 [8]: does not inhibit
